The text below walks through data of ChEMBL document CHEMBL5543142, “Discovery of YFJ-36: Design, Synthesis, and Antibacterial Activities of Catechol-Conjugated β-Lactams against Gram-Negative Bacteria” (J Med Chem, 2024).

Data set [1] concerns Pseudomonas aeruginosa. Kind of data set: Antibacterial activity against IMP-4 producing multidrug-resistant Pseudomonas aeruginosa clinical isolate 19-5 assessed as inhibition of bacterial growth incubated for 18 to 20 hrs by two fold serial dilution assay. The conditions noted are these: time 18-20 hrs. It is filed as functional.
The subject of data set [2] is Pseudomonas aeruginosa. Kind of data set: Antibacterial activity against IMP-4 producing multidrug-resistant Pseudomonas aeruginosa clinical isolate 19-1 assessed as inhibition of bacterial growth incubated for 18 to 20 hrs by two fold serial dilution assay. In kind it is functional. Conditions: time 18-20 hrs.
Data set [3] deals with Escherichia coli. Kind of data set: Antibacterial activity against ESBL-producing multidrug-resistant Escherichia coli clinical isolate 14-2 assessed as inhibition of bacterial growth incubated for 18 to 20 hrs by two fold serial dilution assay. It is filed as functional. Conditions: time 18-20 hrs.
Data set [4] has as its system Escherichia coli. Kind of data set: Antibacterial activity against Escherichia coli ATCC35218 assessed as inhibition of bacterial growth incubated for 18 to 20 hrs by two fold serial dilution assay. In kind it is functional. The conditions noted are these: time 18-20 hrs.
The subject of data set [5] is Acinetobacter baumannii. Kind of data set: Antibacterial activity against OXA-23 producing multidrug-resistant Acinetobacter baumannii clinical isolate 17-2 assessed as inhibition of bacterial growth incubated for 18 to 20 hrs by two fold serial dilution assay. In kind it is functional. The conditions noted are these: time 18-20 hrs.
The test system of data set [6] is Escherichia coli. Nature of the data set: Antibacterial activity against ESBL-producing multidrug-resistant Escherichia coli clinical isolate 14-1 assessed as inhibition of bacterial growth incubated for 18 to 20 hrs by two fold serial dilution assay. It is filed as functional. The conditions noted are these: time 18-20 hrs.
Data set [7] has as its system Pseudomonas aeruginosa. Nature of the data set: Antibacterial activity against IMP-4 producing multidrug-resistant Pseudomonas aeruginosa clinical isolate 17-13 assessed as inhibition of bacterial growth incubated for 18 to 20 hrs by two fold serial dilution assay. In kind it is functional. The conditions noted are these: time 18-20 hrs.
Data set [8] concerns Klebsiella pneumoniae. Nature of the data set: Antibacterial activity against KPC-2 producing multidrug-resistant Klebsiella pneumoniae clinical isolate 15-1 assessed as inhibition of bacterial growth incubated for 18 to 20 hrs by two fold serial dilution assay. It is filed as functional. Conditions: time 18-20 hrs.
Data set [9] deals with Acinetobacter baumannii. Nature of the data set: Antibacterial activity against OXA-23 producing multidrug-resistant Acinetobacter baumannii clinical isolate 17-8 assessed as inhibition of bacterial growth incubated for 18 to 20 hrs by two fold serial dilution assay. In kind it is functional. The conditions noted are these: time 18-20 hrs.
The test system of data set [10] is Escherichia coli. Nature of the data set: Antibacterial activity against ESBL-producing multidrug-resistant Escherichia coli clinical isolate 14-4 assessed as inhibition of bacterial growth incubated for 18 to 20 hrs by two fold serial dilution assay. Conditions: time 18-20 hrs. It is filed as functional.
Data set [11] concerns Klebsiella pneumoniae. Kind of data set: Antibacterial activity against KPC-2 producing multidrug-resistant Klebsiella pneumoniae clinical isolate 15-5 assessed as inhibition of bacterial growth incubated for 18 to 20 hrs by two fold serial dilution assay. It is filed as functional. Conditions: time 18-20 hrs.
Data set [12] concerns Acinetobacter baumannii. Nature of the data set: Antibacterial activity against OXA-23 producing multidrug-resistant Acinetobacter baumannii clinical isolate 17-6 assessed as inhibition of bacterial growth incubated for 18 to 20 hrs by two fold serial dilution assay. In kind it is functional. The conditions noted are these: time 18-20 hrs.
In data set [13] the test system is Klebsiella pneumoniae. Nature of the data set: Antibacterial activity against KPC-2 producing multidrug-resistant Klebsiella pneumoniae clinical isolate 15-3 assessed as inhibition of bacterial growth incubated for 18 to 20 hrs by two fold serial dilution assay. The conditions noted are these: time 18-20 hrs. In kind it is functional.
The subject of data set [14] is Acinetobacter baumannii. Kind of data set: Antibacterial activity against OXA-23 producing multidrug-resistant Acinetobacter baumannii clinical isolate 17-5 assessed as inhibition of bacterial growth incubated for 18 to 20 hrs by two fold serial dilution assay. It is filed as functional. The conditions noted are these: time 18-20 hrs.
Data set [15] deals with Pseudomonas aeruginosa. Kind of data set: Antibacterial activity against IMP-4 producing multidrug-resistant Pseudomonas aeruginosa clinical isolate 19-17 assessed as inhibition of bacterial growth incubated for 18 to 20 hrs by two fold serial dilution assay. Conditions: time 18-20 hrs. In kind it is functional.
Data set [16] deals with Acinetobacter baumannii. Nature of the data set: Antibacterial activity against OXA-23 producing multidrug-resistant Acinetobacter baumannii clinical isolate 17-7 assessed as inhibition of bacterial growth incubated for 18 to 20 hrs by two fold serial dilution assay. It is filed as functional. Conditions: time 18-20 hrs.
Data set [17] has as its system Klebsiella pneumoniae. Nature of the data set: Antibacterial activity against KPC-2 producing multidrug-resistant Klebsiella pneumoniae clinical isolate 15-2 assessed as inhibition of bacterial growth incubated for 18 to 20 hrs by two fold serial dilution assay. It is filed as functional. The conditions noted are these: time 18-20 hrs.
Data set [18] concerns Acinetobacter baumannii. Nature of the data set: Antibacterial activity against OXA-23 producing multidrug-resistant Acinetobacter baumannii clinical isolate 17-3 assessed as inhibition of bacterial growth incubated for 18 to 20 hrs by two fold serial dilution assay. It is filed as functional. Conditions: time 18-20 hrs.
Data set [19] concerns Pseudomonas aeruginosa. Kind of data set: Antibacterial activity against IMP-4 producing multidrug-resistant Pseudomonas aeruginosa clinical isolate 17-1 assessed as inhibition of bacterial growth incubated for 18 to 20 hrs by two fold serial dilution assay. In kind it is functional. The conditions noted are these: time 18-20 hrs.
Data set [20] concerns Acinetobacter baumannii. Kind of data set: Antibacterial activity against OXA-23 producing multidrug-resistant Acinetobacter baumannii clinical isolate 15-1 assessed as inhibition of bacterial growth incubated for 18 to 20 hrs by two fold serial dilution assay. It is filed as functional. Conditions: time 18-20 hrs.
Data set [21] is described as follows: Plasma protein binding in mouse incubated for 35 mins by LC-MS/MS analysis. Conditions: read-out: PPB (converted). In kind it is ADME, cell-free.
The subject of data set [22] is Acinetobacter baumannii. Nature of the data set: Antibacterial activity against OXA-23 producing multidrug-resistant Acinetobacter baumannii clinical isolate 15-4 assessed as inhibition of bacterial growth incubated for 18 to 20 hrs by two fold serial dilution assay. In kind it is functional. Conditions: time 18-20 hrs.
For data set [23], the system named is Acinetobacter baumannii. Kind of data set: Antibacterial activity against OXA-23 producing multidrug-resistant Acinetobacter baumannii clinical isolate 15-3 assessed as inhibition of bacterial growth incubated for 18 to 20 hrs by two fold serial dilution assay. In kind it is functional. Conditions: time 18-20 hrs.
The test system of data set [24] is Acinetobacter baumannii. Nature of the data set: Antibacterial activity against OXA-23 producing multidrug-resistant Acinetobacter baumannii clinical isolate 15-2 assessed as inhibition of bacterial growth incubated for 18 to 20 hrs by two fold serial dilution assay. Conditions: time 18-20 hrs. In kind it is functional.
The subject of data set [25] is Acinetobacter baumannii. Nature of the data set: Antibacterial activity against OXA-23 producing multidrug-resistant Acinetobacter baumannii clinical isolate 15-5 assessed as inhibition of bacterial growth incubated for 18 to 20 hrs by two fold serial dilution assay. Conditions: time 18-20 hrs. In kind it is functional.

Structures are written as SMILES. Some results are limits rather than exact numbers.

The term MIC denotes the least concentration at which growth counts as inhibited. `C[C@](O/N=C(\C(=O)N[C@@H]1C(=O)N2C(C(=O)O)=C(CSCCNC(=O)c3ccc(O)c(O)c3Cl)CS[C@H]12)c1nc(N)sc1Cl)(C(=O)O)C(F)(F)F.O=C(O)C(F)(F)F`: the MIC in the data set with Pseudomonas aeruginosa [1] was found to be 0.25 µg/mL; in the data set with Pseudomonas aeruginosa [2] it was 1 µg/mL; with Escherichia coli [3], 0.5 µg/mL; with Escherichia coli [4], 0.125 µg/mL; in the data set with Acinetobacter baumannii [5], 0.06 µg/mL; in the data set on Escherichia coli [6], 0.06 µg/mL. Also, the MIC is 0.125 µg/mL in the data set on Pseudomonas aeruginosa [7]; 0.25 µg/mL with Klebsiella pneumoniae [8]; 0.125 µg/mL in the data set on Acinetobacter baumannii [9]; not above 0.03 µg/mL in the data set with Escherichia coli [10]; 0.125 µg/mL with Klebsiella pneumoniae [11]; 0.5 µg/mL in the data set on Acinetobacter baumannii [12]. Besides, the MIC in the data set on Klebsiella pneumoniae [13] was determined as 0.5 µg/mL; with Acinetobacter baumannii [14], 0.125 µg/mL; in the data set on Pseudomonas aeruginosa [15] it was 0.06 µg/mL; with Acinetobacter baumannii [16] it was 0.5 µg/mL; with Klebsiella pneumoniae [17], 0.5 µg/mL; with Acinetobacter baumannii [18], 0.5 µg/mL. In addition, the MIC in the data set with Pseudomonas aeruginosa [19] worked out at 8 µg/mL.

`CC(C)[C@H](O/N=C(\C(=O)N[C@@H]1C(=O)N2C(C(=O)O)=C(CSCCNC(=O)c3ccc(O)c(O)c3Cl)CS[C@H]12)c1csc(N)n1)C(=O)O.O=C(O)C(F)(F)F`: the MIC in the data set with Pseudomonas aeruginosa [1] amounted to 0.5 µg/mL; in the data set with Pseudomonas aeruginosa [2], 1 µg/mL; in the data set with Escherichia coli [3] it was 1 µg/mL; with Escherichia coli [4], 0.06 µg/mL; in the data set on Acinetobacter baumannii [5] it was 4 µg/mL; with Escherichia coli [6] it was 0.125 µg/mL. In addition, the MIC stood at 0.125 µg/mL in the data set with Pseudomonas aeruginosa [7]; 1 µg/mL with Klebsiella pneumoniae [8]; 4 µg/mL in the data set on Acinetobacter baumannii [9]; 0.125 µg/mL with Escherichia coli [10]; 4 µg/mL in the data set on Klebsiella pneumoniae [11]; 16 µg/mL in the data set with Acinetobacter baumannii [12]. For the same molecule, the MIC stood at 4 µg/mL with Klebsiella pneumoniae [13]; 4 µg/mL in the data set with Acinetobacter baumannii [14]; 0.25 µg/mL with Pseudomonas aeruginosa [15]; 8 µg/mL with Acinetobacter baumannii [16]; 1 µg/mL with Klebsiella pneumoniae [17]; 4 µg/mL in the data set with Acinetobacter baumannii [18]. The MIC in the data set with Pseudomonas aeruginosa [19] came out at 8 µg/mL.

Consider `Nc1nc(/C(=N/OC(C(=O)O)C2CCC(C(F)(F)F)CC2)C(=O)N[C@@H]2C(=O)N3C(C(=O)O)=C(CSCCNC(=O)c4ccc(O)c(O)c4Cl)CS[C@H]23)cs1.O=C(O)C(F)(F)F` (stereo not given in full), for which the minimal inhibitory concentration (MIC) worked out at 4 µg/mL with Acinetobacter baumannii [20]; 1 µg/mL with Escherichia coli [3]; 0.06 µg/mL in the data set on Escherichia coli [4]; 0.25 µg/mL in the data set on Escherichia coli [6]; 0.125 µg/mL with Pseudomonas aeruginosa [7]; 1 µg/mL with Klebsiella pneumoniae [8]. The MIC in the data set on Acinetobacter baumannii [22] was determined as 8 µg/mL; with Escherichia coli [10] it was 0.25 µg/mL; in the data set with Klebsiella pneumoniae [11] it was 1 µg/mL; with Klebsiella pneumoniae [13] it was 1 µg/mL; with Pseudomonas aeruginosa [15], 0.5 µg/mL; in the data set with Klebsiella pneumoniae [17], 1 µg/mL. The MIC in the data set on Acinetobacter baumannii [23] was determined as 4 µg/mL; in the data set with Acinetobacter baumannii [24], 2 µg/mL; in the data set on Pseudomonas aeruginosa [19] it was 1 µg/mL; in the data set with Acinetobacter baumannii [25], 2 µg/mL. For the same molecule, the fraction unbound at 35 min in data set [21] was 0.04.
